# Laboratory results: US20110190137A1, “METHOD TO INHIBIT ETHYLENE RESPONSES IN PLANTS” (priority 2003, published 2011)
# Assays:
# [1] = tested on: ethylene-induced epinasty in Patio variety tomato plants; assay: Tomato epinasty test, volatile gas treatment; assay type: in vivo; conditions: for Gas @ 10 ppm: visual rating of protection against ethylene-induced epinasty: gas 10 ppm v/v, 10 ppm ethylene, scale 0 to 10 (10 = complete protection); for Gas @ 1000 ppm: visual rating of protection against ethylene-induced epinasty: gas 1000 ppm v/v, 10 ppm ethylene after 4 h, scored 16 h later, scale 0 (no protection) to 10 (complete protection)
# Protocol: (§1) Objective: The test procedure is designed to determine the ability of an experimental compound to block the epinastic growth response induced by ethylene in tomato plants when the experimental compound is administered either as a volatile gas or as a component of a spray solution.
# (§2) Treatment chambers are of an appropriate size for the test plants and are airtight. Each is fitted with a reusable septum to be used for injection of ethylene. Test plants are Patio variety tomato seedlings planted two plants per three inch square plastic pot.
# Volatile gas treatment entails placing two pots of Patio var. tomatoes into a polystyrene 4.8 L volume treatment chamber along with one-half (upper or lower section) of a 50×9 mm plastic Petri dish containing a Gelman filter pad. The appropriate amount of experimental compound, dissolved in 1.0 ml acetone, is pipetted onto the filter pad and the chamber immediately sealed. Four hours later ethylene gas equal to 10 ppm v/v final concentration is injected into the sealed chamber. Sixteen hours later the chambers are opened in an exhaust hood, allowed to air and the plants scored visually for the degree of protection against ethylene-induced epinasty conferred by the experimental compound when compared to ethylene treated and untreated controls on a scale of 0 to 10. A rating of 10 means complete protection. A rating of 0 means no protection from the effects of ethylene. Gas treatment concentrations are volume/volume.
# [2] = tested on: ethylene-induced epinasty in Patio variety tomato plants; assay: Tomato epinasty test, spray application treatment; assay type: in vivo; conditions: for Spray @10 ppm: visual rating of protection against ethylene-induced epinasty: spray 10 ppm in 10% acetone/90% water, 0.05% Silwett L-77, 10 ppm ethylene, scale 0 to 10 (10 = complete protection)
# Protocol: as §1, §2
# Spray application treatment entails using a DeVilbiss atomizer to completely cover all foliage and stems of two pots of Patio var. tomato plants with the appropriate amount of experimental compound dissolved in 10% acetone/90% water with 0.05% Silwett L-77 surfactant. Plants are air-dried in a drying hood for four hours then transferred to a 4.8 L polystyrene chamber which is sealed.
# Ethylene gas equal to 10 ppm v/v final concentration is injected into the sealed chamber. Sixteen hours later the chambers are opened in an exhaust hood, allowed to air and the plants scored visually for the degree of protection against ethylene-induced epinasty conferred by the experimental compound when compared to ethylene treated and untreated controls on a scale of 0 to 10. A rating of 10 means complete protection. A rating of 0 means no protection from the effects of ethylene.
Structure (SMILES),Gas @ 10 ppm: visual rating of protection against ethylene-induced epinasty [1],Spray @10 ppm: visual rating of protection against ethylene-induced epinasty [2],Gas @ 1000 ppm: visual rating of protection against ethylene-induced epinasty [1],also measured
O=C(OCC1=CC1)c1ccco1 [Compound 47],0,0,,"Gas @ 551 ppm: rating of protection against epinasty ([1]; gas 551 ppm (in cell), scale 0 to 10): 10(@551"
"Clc1ccc(SCCC2=CC2)cc1 [Compound 9, 1-(2-(4-Chlorophenylthio)ethyl)cyclopropene]",10,10,,
"C1=C(CCCCCCCN(c2ccccc2)c2ccccc2)C1 [Compound 13, 7-(diphenylamino)-1-heptylcyclopropene]",0,10,,
C1=C(CCCCc2ccccc2)C1 [Compound 27],10,10,,
"C(CCCCCCC1=CC1)=NN1CCCCC1 [Compound 36, 1-(7-(N-piperidinoimino-heptyl))-cyclopropene]",5,3,,Gas @ 500 ppm: rating of protection against epinasty ([1]; scale 0 to 10): 10^c^
"C1=C(CCCC2OCCCO2)C1 [Compound 3, 2-(3-Cycloprop-1-enyl-propyl)-[1,3]dioxane]",8,0,,
"BrC1=C(Cc2ccccc2)C1 [Compound 45, 1-Benzyl-2-bromocyclopropene]",5,0,10,
"CC(C)(C)[Si](C)(C)OCCCCCCCC1=CC1 [Compound 82, 1-(7-T-butyldimethylsilyloxyheptyl)-cyclopropene]",3,0,10,
"CCCCCCCCC1=C(Br)C1 [Compound 71, 1-Bromo-2-octyl-cyclopropene]",1,3,10,
"CCC1=C(COS(C)(=O)=O)C1 [Compound 83, 1-(Methanesulfonyloxymethyl)-2-ethylcyclopropene]",4,2,10,
Cc1cccc(CC2=CC2)c1 [Compound 29],10,10,,
CC1(Cc2ccccc2)C=C1 [Compound 20],0,0,7,
C1=C(CCSc2ccccn2)C1 [Compound 35],10,9,,
"ClC1=C(Cc2ccccc2)C1 [Compound 46, 1-Benzyl-2-chlorocyclopropene]",5,0,10,
"C[Si](C)(C)CC1=CC1 [Compound 64, 1-Trimethylsilylmethylcyclopropene]",10,9,,
"CCSCCCCCCCC1=CC1 [Compound 70, 1-(7-Ethanethioheptyl)-cyclopropene]",2,10,,
"CCCCCC1(C)C=C1 [Compound 72, 3-Methyl-3-pentyl-cyclopropene]",0,2,9,
C1=C(CCc2ccccc2)C1 [Compound 18],10,6,,
"C[Si](C)(CCCCCCC1=CC1)c1ccccc1 [Compound 4, 1-(6-(Phenyldimethylsilyl)-hexyl)-cyclopropene]",4,10,,

Structure (SMILES),Gas @ 10 ppm: visual rating of protection against ethylene-induced epinasty [1],Spray @10 ppm: visual rating of protection against ethylene-induced epinasty [2],Gas @ 1000 ppm: visual rating of protection against ethylene-induced epinasty [1],also measured
O=C(O)CCC1=C(Br)C1 [Compound 77],8,2,,
Cc1ccc(CC2=CC2)cc1 [Compound 24],10,10,,
"CCCCCCCCC1=C(B2OCO2)C1 [Compound 38, 2-Octyl-1-(2-(2-boro-1,3dioxetane))-cyclopropene]",3,0,,"Gas, tested at 850 ppm: rating of protection against epinasty ([1]; gas 850 ppm (footnote b or in cell), scale 0 to 10): 10(@850"
"CCCCCCCCCC1(C)C=C1 [Compound 73, 3-Methyl-3-nonyl-cyclopropene]",0,0,8,
"C1=C(CCCSc2ccccn2)C1 [Compound 55, 1-(2-Pyridylthiopropyl)-cyclopropene]",,3,,"Gas @ 800 ppm: rating of protection against epinasty ([1]; gas 800 ppm (in cell), scale 0 to 10): 10(@800"
C1=C(CC2CCCCC2)C1 [Compound 23],10,10,,
"CS(=O)(=O)OCCCCC1=CC1 [Compound 85, 1-(4-Methanesulfonyloxybutyl)-cyclopropene]",0,0,10,
"CC[Si](CC)(CC)C1=C(C)C1 [Compound 81, 1-Triethylsilyl-2-methylcyclopropene]",0,0,10,
COc1ccccc1CC1=CC1 [Compound 26],10,5,,
O=C(OCCC1=CC1)c1cnc(Cl)c(Cl)c1 [Compound 50],0,0,9,
C1=C(CCSc2ccncc2)C1 [Compound 43],10,0,,
Cc1nnsc1C(=O)OCCC1=CC1 [Compound 51],0,0,3,"Spray @ 1000 ppm: rating of protection against epinasty ([2]; spray 1000 ppm (in cell), scale 0 to 10): 8"
CCOC(=O)CCC1=C(Br)C1 [Compound 76],10,0,,
COc1ccc(OCC2(C)C=C2)cc1 [Compound 16],3.75,4.5,,Gas @ 500 ppm: rating of protection against epinasty ([1]; scale 0 to 10): 10^c^
"O=C(O)CC1(c2ccccc2)C(c2ccccc2)=C1c1ccccc1 [Compound 40, 3-Hydroxycarbonylmethyl-1,2,3-triphenylcyclopropene]",7,0,,
"CCCC[Si](C)(C)C1=C(C)C1 [Compound 80, 1-(Butyldimethylsilyl)-2-methylcyclopropene]",0,0,7,
"CCCCCCCC1=C(C)C1 [Compound 74, 1-Heptyl-2-methyl-cyclopropene]",0,0,10,
"O=S(=O)(OCCCCCCCCC1=CC1)c1ccccc1 [Compound 56, 1-(8-Benzenesulfonyloxyoctyl)-cyclopropene]",5,10,,
